# Assay results: ChEMBL document CHEMBL3392926, “Antiprotozoal Activity Profiling of Approved Drugs: A Starting Point toward Drug Repositioning”
# Where “and” joins values, the source holds several entries; their conditions need not be identical. Equal entries are not always repeated.
# How the values were obtained:
# Trypanosoma cruzi = assay: microbe, parasite or virus in culture; assay type: functional, organism-based, Tulahuen C4 (LacZ); conditions: Trypanosoma cruzi, Tulahuen C4 (LacZ), 96 h
# cells [1] = assay type: functional, cell-based; conditions: Rattus norvegicus, L6, 72 h
# cells [2] = assay type: functional, cell-based; conditions: Mus musculus, NMRI, BalbC or CD1 mice, Macrophage, 96 h
# [3] = DNDI: Cytotoxicity in Vitro, 96 hour, in primary peritoneal mouse macrophages; assay type: functional, cell-based; conditions: Macrophage
# [4] = tested on: Trypanosoma brucei rhodesiense; assay: microbe, parasite or virus in culture; assay type: functional, organism-based, STIB 900; conditions: Trypanosoma brucei, STIB 900, 72 h
# Leishmania donovani [5] = assay: microbe, parasite or virus in culture; assay type: functional, organism-based, MHOM/ET/67/L82
# Leishmania donovani [6] = assay: microbe, parasite or virus in culture; assay type: functional, organism-based, MHOM/ET/67/L82; remark: listed apart in the source
# Plasmodium falciparum = assay: microbe, parasite or virus in culture; assay type: functional, organism-based, K1
# [7] = Leishmania donovani, MHOM/ET/67/L82, 72 h
# [8] = Leishmania donovani, MHOM/ET/67/L82, 96 h
# [9] = Plasmodium falciparum, K1, 72 h
smiles,measurement,setting,value
COc1cc(N[C@H](C)CCCN)c2ncccc2c1,IC50,Trypanosoma cruzi,17.9 µM
same,IC50,cells [1],43.2 µM
same,IC50,cells [2],> 38.6 µM
same,IC50,[3],39.7 µM
same,IC50,[4],4.78 µM
same,IC50,Leishmania donovani [5]; [7],48.6 µM
same,IC50,Leishmania donovani [6]; [8],28.2 µM
CC1CS(=O)(=O)CCC1/N=N/c1ccc([N+](=O)[O-])o1 (stereo not given),IC50,Trypanosoma cruzi,0.19 µM
same,IC50,cells [1],87 µM
same,IC50,cells [2],> 34.8 µM
same,IC50,[3],15.7 µM
same,IC50,[4],1.44 µM
same,IC50,Leishmania donovani [5]; [7],2.76 µM
same,IC50,Leishmania donovani [6]; [8],20.7 µM
C[C@@H]1[C@H](O)[C@@H](C)/C=C/C=C/C=C/C=C/C=C/C=C/C=C/[C@H](O[C@@H]2O[C@H](O)[C@@H](O)[C@H](N)[C@@H]2O)C[C@@H]2O[C@](O)(C[C@@H](O)C[C@@H](O)[C@H](O)CC[C@@H](O)C[C@@H](O)CC(=O)O[C@H]1C)C[C@H](O)[C@H]2C(=O)O,IC50,Trypanosoma cruzi,56.7 µM
same,IC50,cells [1],10.3 µM
same,IC50,cells [2],32.4 µM
same,IC50,[3],22.4 µM
same,IC50,[4],0.76 µM
same,IC50,Leishmania donovani [5]; [7],0.34 µM
same,IC50,Leishmania donovani [6]; [8],0.31 µM
same,IC50,Plasmodium falciparum; [9],0.8 µM
Cc1cc(C2CCCCC2)n(O)c(=O)c1 [CICLOPIROX OLAMINE],IC50,Trypanosoma cruzi,2.49 µM
same,IC50,cells [1],1.04 µM
same,IC50,cells [2],> 11.2 µM
same,IC50,[3],20.3 µM
same,IC50,[4],0.8 µM
same,IC50,Leishmania donovani [5]; [7],1.64 µM
same,IC50,Leishmania donovani [6]; [8],9.09 µM
same,IC50,Plasmodium falciparum; [9],3.75 µM
CC(C)/N=c1\cc2n(-c3ccc(Cl)cc3)c3ccccc3nc-2cc1Nc1ccc(Cl)cc1 [CLOFAZIMINE],IC50,Trypanosoma cruzi,38.2 µM
same,IC50,cells [1],9.97 µM
same,IC50,cells [2],6.34 µM
same,IC50,[3],10.7 µM
same,IC50,[4],7.63 µM
same,IC50,Leishmania donovani [5]; [7],22.4 µM
same,IC50,Leishmania donovani [6]; [8],0.95 µM
same,IC50,Plasmodium falciparum; [9],4.1 µM
Clc1ccccc1C(c1ccccc1)(c1ccccc1)n1ccnc1 [CLOTRIMAZOLE],IC50,cells [1],2.99 µM
same,IC50,cells [2],87 µM
same,IC50,[3],32.5 µM
Clc1ccc(COC(Cn2ccnc2)c2ccc(Cl)cc2Cl)cc1 (stereo not given) [ECONAZOLE],IC50,cells [1],15.6 µM
same,IC50,cells [2],67.6 µM
same,IC50,[3],22.8 µM
Clc1ccc(COC(Cn2ccnc2)c2ccc(Cl)cc2Cl)c(Cl)c1 (stereo not given) [MICONAZOLE],IC50,cells [1],15.4 µM
same,IC50,cells [2],62.7 µM
same,IC50,[3],23.9 µM
NC(=O)c1cccnc1 [NIACINAMIDE],IC50,Trypanosoma cruzi,> 737 µM
same,IC50,cells [1],> 737 µM
same,IC50,cells [2],> 246 µM
same,IC50,[4],> 737 µM
same,IC50,Leishmania donovani [5]; [7],> 737 µM
same,IC50,Leishmania donovani [6]; [8],> 246 µM
same,IC50,Plasmodium falciparum; [9],> 40.9 µM
O=C(Nc1ccc([N+](=O)[O-])cc1Cl)c1cc(Cl)ccc1O [NICLOSAMIDE],IC50,Trypanosoma cruzi,2.49 µM
same,IC50,cells [1],2.3 µM
same,IC50,cells [2],1.01 µM
same,IC50,[4],1.67 µM
same,IC50,Leishmania donovani [5]; [7],0.15 µM
same,IC50,Leishmania donovani [6]; [8],> 0.31 µM
same,IC50,Plasmodium falciparum; [9],1.14 µM
O=C(N/N=C/c1ccc([N+](=O)[O-])o1)c1ccc(O)cc1 [NIFUROXAZIDE],IC50,Trypanosoma cruzi,0.23 µM
same,IC50,cells [1],12.3 µM
same,IC50,cells [2],36.2 µM
same,IC50,[4],0.03 µM
same,IC50,Leishmania donovani [5]; [7],2.83 µM
same,IC50,Leishmania donovani [6]; [8],> 10.9 µM
same,IC50,Plasmodium falciparum; [9],7.82 µM
CNCCC=C1c2ccccc2CCc2ccccc21 [NORTRIPTYLINE],IC50,Trypanosoma cruzi,22.9 µM
same,IC50,cells [1],27.9 µM
same,IC50,cells [2],38 µM
same,IC50,[4],1.17 µM
same,IC50,Leishmania donovani [5]; [7],> 342 µM
same,IC50,Leishmania donovani [6]; [8],> 11.4 µM
same,IC50,Plasmodium falciparum; [9],0.58 µM
COc1ccc2[nH]c([S+]([O-])Cc3ncc(C)c(OC)c3C)nc2c1 (stereo not given) [OMEPRAZOLE],IC50,Trypanosoma cruzi,68.3 µM
same,IC50,cells [1],126 µM
same,IC50,cells [2],> 86.9 µM
same,IC50,[4],51.8 µM
same,IC50,Leishmania donovani [5]; [7],90.9 µM
same,IC50,Leishmania donovani [6]; [8],> 86.9 µM
same,IC50,Plasmodium falciparum; [9],13.2 µM
Fc1ccc([C@@H]2CCNC[C@H]2COc2ccc3c(c2)OCO3)cc1 [PAROXETINE],IC50,Trypanosoma cruzi,14.4 µM
same,IC50,cells [1],13.8 µM
same,IC50,cells [2],30.4 µM
same,IC50,[4],1.13 µM
same,IC50,Leishmania donovani [5]; [7],> 273 µM
same,IC50,Leishmania donovani [6]; [8],> 9.11 µM
same,IC50,Plasmodium falciparum; [9],9.23 µM
N=C(N)c1ccc(OCCCCCOc2ccc(C(=N)N)cc2)cc1 [PENTAMIDINE],IC50,Trypanosoma cruzi,4.44 µM
same,IC50,cells [1],8.87 µM
same,IC50,cells [2],> 29.4 µM
same,IC50,[3],7.78 µM
same,IC50,[4],0.01 µM
same,IC50,Leishmania donovani [5]; [7],19.8 µM
CN(C)CCCN1c2ccccc2Sc2ccccc21 [PROMAZINE],IC50,Trypanosoma cruzi,49.1 µM
same,IC50,cells [1],30.1 µM
same,IC50,cells [2],> 35.2 µM
same,IC50,[4],2.16 µM
same,IC50,Leishmania donovani [5]; [7],> 316 µM
same,IC50,Leishmania donovani [6]; [8],> 35.2 µM
same,IC50,Plasmodium falciparum; [9],0.49 µM
CO[C@H]1/C=C/O[C@@]2(C)Oc3c(C)c(O)c4c(O)c(cc(O)c4c3C2=O)NC(=O)/C(C)=C\C=C\[C@H](C)[C@H](O)[C@@H](C)[C@@H](O)[C@@H](C)[C@H](OC(C)=O)[C@@H]1C [RIFAMYCIN],IC50,Trypanosoma cruzi,50 µM
same,IC50,cells [1],15.7 µM
same,IC50,cells [2],41.6 µM
same,IC50,[4],0.99 µM
same,IC50,Leishmania donovani [5]; [7],1.5 µM
same,IC50,Leishmania donovani [6]; [8],> 13.9 µM
same,IC50,Plasmodium falciparum; [9],0.55 µM
CCN(CC)CCCCCCNc1cc(OC)cc2c(C)ccnc12 [SITAMAQUINE],IC50,Trypanosoma cruzi,22 µM
same,IC50,cells [1],32.3 µM
same,IC50,cells [2],> 29.1 µM
same,IC50,[3],21.4 µM
same,IC50,[4],7.39 µM
same,IC50,Leishmania donovani [5]; [7],13.7 µM
same,IC50,Leishmania donovani [6]; [8],19.5 µM
same,IC50,Plasmodium falciparum; [9],0.08 µM
CN(C/C=C/C#CC(C)(C)C)Cc1cccc2ccccc12 [TERBINAFINE],IC50,Trypanosoma cruzi,40.9 µM
same,IC50,cells [1],47 µM
same,IC50,cells [2],> 91.5 µM
same,IC50,[4],95.2 µM
same,IC50,Leishmania donovani [5]; [7],23 µM
same,IC50,Leishmania donovani [6]; [8],69.5 µM
same,IC50,Plasmodium falciparum; [9],7.72 µM
Clc1ccc(C(Cn2ccnc2)OCc2ccsc2Cl)c(Cl)c1 (stereo not given) [TIOCONAZOLE],IC50,[3],51.1 µM
same,IC50,Leishmania donovani [5],22.4 µM and 9.26 µM
same,IC50,Leishmania donovani [6],13.1 µM
same,IC50,Leishmania donovani [6]; [8],> 7.74 µM
same,IC50,Plasmodium falciparum,0.63 µM
same,IC50,Plasmodium falciparum; [9],1.07 µM
Cc1cccc(N(C)C(=S)Oc2ccc3ccccc3c2)c1 [TOLNAFTATE],IC50,Trypanosoma cruzi,20 µM
same,IC50,cells [1],84.6 µM
same,IC50,cells [2],> 97.6 µM
same,IC50,[4],69.3 µM
same,IC50,Leishmania donovani [5]; [7],4.33 µM
same,IC50,Leishmania donovani [6]; [8],50.1 µM
same,IC50,Plasmodium falciparum; [9],19 µM
CN1CCN(CCCN2c3ccccc3Sc3ccc(C(F)(F)F)cc32)CC1 [TRIFLUOPERAZINE],IC50,Trypanosoma cruzi,10.1 µM
same,IC50,cells [1],11 µM
same,IC50,cells [2],24.5 µM
same,IC50,[4],1.23 µM
same,IC50,Leishmania donovani [5]; [7],52.9 µM
same,IC50,Leishmania donovani [6]; [8],> 7.36 µM
same,IC50,Plasmodium falciparum; [9],1.48 µM
CN(C)CCCN1c2ccccc2Sc2ccc(C(F)(F)F)cc21 [TRIFLUPROMAZINE],IC50,Trypanosoma cruzi,15 µM
same,IC50,cells [1],18.5 µM
same,IC50,cells [2],28.4 µM
same,IC50,[4],1.42 µM
same,IC50,Leishmania donovani [5]; [7],79.8 µM
same,IC50,Leishmania donovani [6]; [8],> 8.51 µM
same,IC50,Plasmodium falciparum; [9],2.72 µM
Cc1c(C)c2c(c(C)c1O)CCC(C)(COc1ccc(CC3SC(=O)NC3=O)cc1)O2 (stereo not given) [TROGLITAZONE],IC50,Trypanosoma cruzi,32.6 µM
same,IC50,cells [1],80.6 µM
same,IC50,cells [2],> 67.9 µM
same,IC50,[4],59.3 µM
same,IC50,Leishmania donovani [5]; [7],4.26 µM
same,IC50,Leishmania donovani [6]; [8],> 67.9 µM
same,IC50,Plasmodium falciparum; [9],7.27 µM
C[C@@H](c1ncncc1F)[C@](O)(Cn1cncn1)c1ccc(F)cc1F [VORICONAZOLE],IC50,Trypanosoma cruzi,11.2 µM
same,IC50,cells [1],195 µM
same,IC50,cells [2],> 85.9 µM
same,IC50,[4],> 286 µM
same,IC50,Leishmania donovani [5]; [7],> 286 µM
same,IC50,Leishmania donovani [6]; [8],> 85.9 µM
same,IC50,Plasmodium falciparum; [9],> 143 µM
